These results are taken from patent publication US5763587A, “Process for the synthesis of amikacin” (Gist Brocades Italy Spa, priority 1987, dated 1998).

Each structure is given as a SMILES string.

A word on the LD50: it is the dose at which mortality reaches 50%.

One series relates to mice. The series can be described thus: Comparison of death rate, toxicity and acute general tolerability in mice by intravenous administration. Type of series: in vivo. From the text:
(§1) Some experiments have been thus carried out for the comparison of the death rate, toxicity and acute general tolerability, between the product available in the market from Bristol Myers (BB-K8), amikacin produced according to the synthesis of the present invention and the potential impurities (BB K11, BB K29 and the diacylate with L-HABA at N-1 and N-3"), in mice by intravenous administration (caudal vein) to groups of 10 animals. The LD50 values have been calculated by the Finney-Probits method.

Test in series [1]: as above
Type of series: in vivo. Particulars: mouse, in vivo, iv, mice, intravenous (caudal vein), groups of 10 animals, Finney-Probits method.
Excerpt: as §1

In the series on mice (mice, intravenous (caudal vein), groups of 10 animals, Finney-Probits method), `NCC[C@H](O)C(=O)N[C@@H]1C[C@H](N)[C@@H](O[C@H]2O[C@H](CN)[C@@H](O)[C@H](O)[C@H]2O)[C@H](O)[C@H]1O[C@H]1O[C@H](CO)[C@@H](O)[C@H](N)[C@H]1O` [Amikacin, 0-3-amino-3-desoxy-alpha-D-glucopyranosyl-(1→6)-0-[6--amino-6-desoxy-alpha-D-glucopyranosyl-(1→)]-N^1-(4-amino-2-hydroxy-1-oxybutyl)-2-desoxy-D-streptamine] registered a 50% lethal dose (LD50) of 241 mg/kg. The molecule `NCC[C@H](O)C(=O)N[C@@H]1C[C@H](N)[C@@H](O[C@H]2O[C@H](CN)[C@@H](O)[C@H](O)[C@H]2O)[C@H](O)[C@H]1O[C@H]1O[C@H](CO)[C@@H](O)[C@H](N)[C@H]1O` [BB-K8 Bristol] had a 50% lethal dose (LD50) in series [1] of 202 mg/kg.

As for `NCC[C@H](O)C(=O)N[C@@H]1[C@@H](O)[C@@H](O[C@@H]2[C@@H](O)[C@H](O[C@H]3O[C@H](CN)[C@@H](O)[C@H](O)[C@H]3O)[C@@H](N)C[C@H]2N)O[C@H](CO)[C@H]1O` [BB-K11], the “toxicity compared with BB-K29 (in words)” value with mice is given as “lower”. This molecule displayed an LD50 in series [1] of 356 mg/kg. For the molecule `NCC[C@H](O)C(=O)N[C@H]1C[C@@H](N)[C@H](O[C@H]2O[C@H](CO)[C@@H](O)[C@H](N)[C@H]2O)[C@@H](O)[C@@H]1O[C@H]1O[C@H](CN)[C@@H](O)[C@H](O)[C@H]1O` [BB-K29], the “toxicity compared with amikacin (in words)” value with mice was “more toxic than amikacin”. The molecule also showed an LD50 in series [1] of 126 mg/kg.

For `NCC[C@H](O)C(=O)N[C@@H]1[C@@H](O)[C@@H](O[C@@H]2[C@@H](O)[C@H](O[C@H]3O[C@H](CN)[C@@H](O)[C@H](O)[C@H]3O)[C@@H](N)C[C@H]2NC(=O)[C@@H](O)CCN)O[C@H](CO)[C@H]1O` [Diacylate (N-1 and N-3")], the “toxicity compared with BB-K29 (in words)” value in the series with mice is “lower”. The LD50 in series [1] was found to be 268 mg/kg.
